For assay [1], the system named is HL-60 (leukemia) cells. Put plainly: MTT cytotoxicity assay, HL-60. Type of assay: cell-based. Conditions: Homo sapiens, 48 h treatment, read-out: Anticancer activity IC50 HL-60. As for the experimental part: (§1) Compounds proposed in present invention were evaluated for their cytotoxic effect against panel of 5 cancer cell line viz. Panc-1 (pancreatic cancer), MCF-7 (breast cancer), PC-3 (prostate), HL-60 (leukemia) and A-375 (melanoma) using MTT assay. In each well of a 96-well plate, 3×10^3 cells were grown in 100 μL of medium. After 24 h, each test molecules were added to achieve a final concentration of 10 to 0.01 μmol/L, respectively. After 48 h of treatment, 20 μL of 2.5 mg/mL MTT (Organics Research, Inc.) solution in phosphate buffer saline was added to each well. […], supernatant was removed and formazan crystals were dissolved in 200 μL of DMSO. Absorbance was then measured at 570 nm using an absorbance plate reader (Bio-Rad Microplate Reader). Data are expressed as the percentage of viable cells in treated relative to non-treated conditions. Each experiment was repeated thrice and data was expressed as mean±SD of three independent experiments (Mordant, P. et al., Mol. Cancer Ther. 2010, 9, 358).
In general terms: Tetrazolium assays rely on reduction of a dye to a coloured formazan, in cell work by metabolically active cells.

The test system of assay [2] is A-375 (melanoma) cells. Nature of the assay: MTT cytotoxicity assay, A375. Type of assay: cell-based. The conditions noted are these: Homo sapiens, 48 h treatment, read-out: Anticancer activity IC50 A375. How it is done: as §1
Assay [3] deals with MCF-7 (breast cancer) cells. Put plainly: MTT cytotoxicity assay, MCF-7. Format: cell-based. Conditions: Homo sapiens, MCF7, 48 h treatment, read-out: Anticancer activity IC50 MCF-7. As for the experimental part:
as §1

Assay [4] has as its system Panc-1 (pancreatic cancer) cells. Put plainly: MTT cytotoxicity assay, Panc-1. Type of assay: cell-based. The conditions noted are these: Homo sapiens, 48 h treatment, read-out: Anticancer activity IC50 Panc-1. How it is done: as §1
The subject of assay [5] is PC-3 (prostate cancer) cells. Put plainly: MTT cytotoxicity assay, PC-3. Type of assay: cell-based. The conditions noted are these: Homo sapiens, 48 h treatment, read-out: Anticancer activity IC50 PC-3. As for the experimental part:
as §1

Assay [6] has as its target PI3K-α (Homo sapiens, UniProt P42336). Nature of the assay: PI3K-α assay (ADP-Glo). Type of assay: biochemical. Conditions: for % Inhibition of PI3K-α at 0.5 μM / inhibition at 0.5 µM: preliminary screening; for IC50: read-out: PI3K inhibition IC50 -α.
Experimental: The enzyme is assayed for 80 min after which 20 ul of ADP-Glo reagent is added. After a further incubation of 40 min, 40 ul of Kinase Detection Buffer is added. The assays are incubated for 40 min and then read on PerkinElmer Envision for 1 sec/well.
For assay [7], the target named is PI3K-β (Homo sapiens, UniProt P42338). Nature of the assay: PI3K-β assay (ADP-Glo). Conditions: for IC50: read-out: PI3K inhibition IC50 -β; for Fold-selectivity for PI3K-α with respect to -β: α versus β isoform. Format: biochemical.
Experimental: The enzyme is assayed for 60 min after which 20 ul of ADP-Glo reagent is added. After a further incubation of 40 min, 40 ul of kinase detection Buffer is added. The assays are incubated for 40 min and then read on PerkinElmer Envision for 1 sec/well.
Assay [8] deals with PI3K-γ (Homo sapiens, UniProt P48736). Nature of the assay: PI3K-γ assay (ADP-Glo). Type of assay: biochemical. Conditions: for IC50: read-out: PI3K inhibition IC50 -γ; for Fold-selectivity for PI3K-α with respect to -γ: α versus γ isoform. On the technique in general: ADP-Glo turns the ADP formed in a reaction into a luminescent signal.
Experimental: The enzyme is assayed for 75 min after which 20 ul of ADP-Glo reagent is added. After a further incubation of 40 min, 40 ul of Kinase Detection Buffer is added. The assays are incubated for 40 min and then read on PerkinElmer Envision for 1 sec/well.
Assay [9] concerns the target PI3K-δ (Homo sapiens, UniProt O00329). Nature of the assay: PI3K-δ assay (ADP-Glo). Format: biochemical. Conditions: for IC50: read-out: PI3K inhibition IC50 -δ; for Fold-selectivity for PI3K-α with respect to -δ: α versus δ isoform.
Experimental: Compounds proposed in present invention were evaluated for their inhibitory activity on phosphoinositide-3-kinase-alpha and other isoforms (beta, gamma and delta). […] The protocols used for these bioassays are as follows:
The enzyme is assayed for 120 min after which 20 ul of ADP-Glo reagent is added. After a further incubation of 40 min, 40 ul of Kinase Detection Buffer is added. The assays are incubated for 40 min and then read on PerkinElmer Envision for 1 sec/well.

A value given as a limit tells only on which side of the number the result lay.

PI3K-β, sequence (P42338 whole entry, species assumed, canonical isoform): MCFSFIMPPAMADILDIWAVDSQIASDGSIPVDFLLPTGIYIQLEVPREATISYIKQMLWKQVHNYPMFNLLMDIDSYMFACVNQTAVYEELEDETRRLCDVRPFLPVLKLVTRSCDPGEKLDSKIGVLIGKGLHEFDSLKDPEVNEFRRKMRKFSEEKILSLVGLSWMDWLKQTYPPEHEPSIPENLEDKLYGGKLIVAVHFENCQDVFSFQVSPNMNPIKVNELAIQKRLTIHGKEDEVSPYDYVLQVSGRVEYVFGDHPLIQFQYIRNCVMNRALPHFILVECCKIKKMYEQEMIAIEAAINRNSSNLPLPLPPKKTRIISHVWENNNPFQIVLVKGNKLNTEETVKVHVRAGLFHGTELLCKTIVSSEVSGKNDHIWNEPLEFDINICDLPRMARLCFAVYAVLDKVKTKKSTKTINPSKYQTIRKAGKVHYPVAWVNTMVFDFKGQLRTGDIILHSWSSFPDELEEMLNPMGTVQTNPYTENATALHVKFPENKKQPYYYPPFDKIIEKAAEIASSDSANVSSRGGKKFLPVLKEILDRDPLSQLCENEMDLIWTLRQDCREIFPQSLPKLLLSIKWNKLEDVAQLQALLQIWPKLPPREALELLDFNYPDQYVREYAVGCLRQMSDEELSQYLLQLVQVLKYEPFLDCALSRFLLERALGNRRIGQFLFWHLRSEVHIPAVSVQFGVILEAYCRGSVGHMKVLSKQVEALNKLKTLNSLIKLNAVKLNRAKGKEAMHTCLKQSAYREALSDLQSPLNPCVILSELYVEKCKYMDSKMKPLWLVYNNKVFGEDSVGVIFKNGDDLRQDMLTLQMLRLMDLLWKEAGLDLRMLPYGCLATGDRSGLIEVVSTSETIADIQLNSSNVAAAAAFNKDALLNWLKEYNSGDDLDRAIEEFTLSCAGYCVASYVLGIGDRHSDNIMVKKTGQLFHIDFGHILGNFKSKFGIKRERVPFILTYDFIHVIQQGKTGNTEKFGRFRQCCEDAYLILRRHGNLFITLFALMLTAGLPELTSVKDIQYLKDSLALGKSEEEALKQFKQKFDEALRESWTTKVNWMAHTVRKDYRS
PI3K-β, sequence (P27986 whole entry partner, species assumed, canonical isoform): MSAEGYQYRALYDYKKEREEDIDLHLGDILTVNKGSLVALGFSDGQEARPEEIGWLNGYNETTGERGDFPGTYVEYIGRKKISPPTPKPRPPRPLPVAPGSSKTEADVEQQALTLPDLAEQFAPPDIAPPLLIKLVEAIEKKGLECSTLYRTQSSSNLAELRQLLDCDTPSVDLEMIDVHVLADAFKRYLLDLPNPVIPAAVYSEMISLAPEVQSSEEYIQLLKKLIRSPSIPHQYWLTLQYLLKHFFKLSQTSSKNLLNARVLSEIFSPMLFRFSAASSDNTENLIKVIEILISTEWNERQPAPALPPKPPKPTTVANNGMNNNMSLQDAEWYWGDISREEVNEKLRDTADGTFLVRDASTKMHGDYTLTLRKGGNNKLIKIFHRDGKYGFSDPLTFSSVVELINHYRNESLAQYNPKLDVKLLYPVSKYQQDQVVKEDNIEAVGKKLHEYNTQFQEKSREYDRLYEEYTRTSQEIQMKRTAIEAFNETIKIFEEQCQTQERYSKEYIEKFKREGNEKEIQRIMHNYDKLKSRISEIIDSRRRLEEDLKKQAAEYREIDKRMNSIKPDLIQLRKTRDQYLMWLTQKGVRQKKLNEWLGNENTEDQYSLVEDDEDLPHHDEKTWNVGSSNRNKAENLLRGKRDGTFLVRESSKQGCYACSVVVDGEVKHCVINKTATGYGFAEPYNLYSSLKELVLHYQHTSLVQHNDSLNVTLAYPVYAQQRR
PI3K-δ, sequence (O00329 whole entry, species assumed, canonical isoform): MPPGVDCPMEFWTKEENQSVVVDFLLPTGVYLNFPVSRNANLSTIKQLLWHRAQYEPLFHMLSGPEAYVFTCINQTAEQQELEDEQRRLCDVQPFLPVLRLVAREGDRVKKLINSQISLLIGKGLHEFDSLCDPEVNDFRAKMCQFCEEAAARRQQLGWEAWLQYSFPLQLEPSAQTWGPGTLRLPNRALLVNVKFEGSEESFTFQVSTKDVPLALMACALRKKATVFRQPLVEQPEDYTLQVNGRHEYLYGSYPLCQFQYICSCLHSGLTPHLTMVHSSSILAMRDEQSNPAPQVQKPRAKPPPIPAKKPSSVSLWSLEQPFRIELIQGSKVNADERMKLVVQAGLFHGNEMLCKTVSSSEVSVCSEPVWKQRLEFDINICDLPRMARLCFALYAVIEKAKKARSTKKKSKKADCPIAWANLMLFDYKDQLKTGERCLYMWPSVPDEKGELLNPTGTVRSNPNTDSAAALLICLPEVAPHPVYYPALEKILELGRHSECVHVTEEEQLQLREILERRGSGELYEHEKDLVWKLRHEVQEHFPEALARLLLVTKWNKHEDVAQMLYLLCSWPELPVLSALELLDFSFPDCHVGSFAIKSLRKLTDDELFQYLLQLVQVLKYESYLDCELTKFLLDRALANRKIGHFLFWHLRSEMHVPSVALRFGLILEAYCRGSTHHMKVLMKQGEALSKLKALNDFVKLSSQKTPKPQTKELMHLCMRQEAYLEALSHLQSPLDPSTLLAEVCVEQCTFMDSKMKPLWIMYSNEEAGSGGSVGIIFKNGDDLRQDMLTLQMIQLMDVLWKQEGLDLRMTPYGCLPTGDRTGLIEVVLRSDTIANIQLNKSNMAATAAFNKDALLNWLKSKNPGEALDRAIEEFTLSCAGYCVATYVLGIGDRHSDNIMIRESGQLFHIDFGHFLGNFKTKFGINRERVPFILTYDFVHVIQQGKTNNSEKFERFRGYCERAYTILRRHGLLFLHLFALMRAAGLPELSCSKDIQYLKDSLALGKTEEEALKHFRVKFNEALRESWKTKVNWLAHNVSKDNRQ
PI3K-δ, sequence (P27986 whole entry partner, species assumed, canonical isoform): as the sequence (P27986 whole entry partner, species assumed, canonical isoform) above
PI3K-γ, sequence (P48736 whole entry, species assumed, canonical isoform): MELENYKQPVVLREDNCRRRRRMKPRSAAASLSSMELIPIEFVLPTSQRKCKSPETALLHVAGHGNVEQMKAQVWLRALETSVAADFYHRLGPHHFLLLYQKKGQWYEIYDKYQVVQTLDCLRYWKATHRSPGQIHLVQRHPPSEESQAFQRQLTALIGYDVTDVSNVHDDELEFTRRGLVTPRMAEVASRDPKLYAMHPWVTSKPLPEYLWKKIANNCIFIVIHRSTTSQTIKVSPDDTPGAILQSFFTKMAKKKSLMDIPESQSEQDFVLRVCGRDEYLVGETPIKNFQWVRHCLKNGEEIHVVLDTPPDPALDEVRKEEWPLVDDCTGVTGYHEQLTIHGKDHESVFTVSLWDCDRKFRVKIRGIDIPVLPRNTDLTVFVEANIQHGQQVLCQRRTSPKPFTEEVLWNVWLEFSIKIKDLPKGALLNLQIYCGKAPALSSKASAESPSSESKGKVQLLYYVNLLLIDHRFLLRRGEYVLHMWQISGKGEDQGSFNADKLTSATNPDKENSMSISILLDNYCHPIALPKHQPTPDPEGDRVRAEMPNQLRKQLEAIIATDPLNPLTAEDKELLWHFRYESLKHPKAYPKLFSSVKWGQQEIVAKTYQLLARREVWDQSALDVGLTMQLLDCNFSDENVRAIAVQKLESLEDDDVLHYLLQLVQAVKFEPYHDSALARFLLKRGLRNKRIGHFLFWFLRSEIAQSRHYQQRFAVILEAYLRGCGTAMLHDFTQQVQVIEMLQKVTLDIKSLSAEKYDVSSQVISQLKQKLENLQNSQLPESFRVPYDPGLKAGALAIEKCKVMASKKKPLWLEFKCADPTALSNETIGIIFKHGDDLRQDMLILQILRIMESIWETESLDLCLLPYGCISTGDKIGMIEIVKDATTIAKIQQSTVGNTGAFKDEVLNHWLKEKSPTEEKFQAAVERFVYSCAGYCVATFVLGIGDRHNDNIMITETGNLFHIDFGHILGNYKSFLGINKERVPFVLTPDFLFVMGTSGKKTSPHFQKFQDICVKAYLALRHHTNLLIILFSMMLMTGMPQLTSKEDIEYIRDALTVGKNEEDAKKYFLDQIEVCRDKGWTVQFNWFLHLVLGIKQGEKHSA
PI3K-α, sequence (P42336 whole entry, canonical isoform): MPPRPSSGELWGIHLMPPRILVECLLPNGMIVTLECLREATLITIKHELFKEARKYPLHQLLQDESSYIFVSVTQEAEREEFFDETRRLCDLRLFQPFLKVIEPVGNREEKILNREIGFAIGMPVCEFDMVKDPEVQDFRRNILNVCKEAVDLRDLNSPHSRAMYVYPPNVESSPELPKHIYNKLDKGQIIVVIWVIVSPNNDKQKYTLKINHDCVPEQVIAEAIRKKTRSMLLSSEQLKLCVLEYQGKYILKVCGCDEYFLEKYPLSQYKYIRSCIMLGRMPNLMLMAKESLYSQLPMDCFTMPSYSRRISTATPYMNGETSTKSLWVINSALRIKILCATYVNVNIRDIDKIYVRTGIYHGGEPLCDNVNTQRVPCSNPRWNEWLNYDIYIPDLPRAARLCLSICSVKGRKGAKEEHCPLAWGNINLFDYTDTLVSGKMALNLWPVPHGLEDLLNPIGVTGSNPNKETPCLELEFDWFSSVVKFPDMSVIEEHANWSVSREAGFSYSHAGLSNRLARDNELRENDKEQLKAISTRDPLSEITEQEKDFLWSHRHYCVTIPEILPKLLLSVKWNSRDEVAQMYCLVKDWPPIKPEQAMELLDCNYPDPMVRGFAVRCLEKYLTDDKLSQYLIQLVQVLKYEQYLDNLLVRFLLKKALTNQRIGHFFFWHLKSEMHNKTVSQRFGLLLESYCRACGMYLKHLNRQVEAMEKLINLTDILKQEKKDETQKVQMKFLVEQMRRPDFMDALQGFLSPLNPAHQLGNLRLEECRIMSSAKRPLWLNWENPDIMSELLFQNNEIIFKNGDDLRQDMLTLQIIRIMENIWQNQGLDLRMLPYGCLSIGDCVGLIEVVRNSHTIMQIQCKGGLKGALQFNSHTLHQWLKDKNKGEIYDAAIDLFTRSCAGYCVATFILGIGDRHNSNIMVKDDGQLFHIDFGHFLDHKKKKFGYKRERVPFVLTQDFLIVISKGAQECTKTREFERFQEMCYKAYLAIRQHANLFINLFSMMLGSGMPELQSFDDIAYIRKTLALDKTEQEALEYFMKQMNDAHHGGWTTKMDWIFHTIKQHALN
PI3K-α, sequence (P27986 whole entry partner, canonical isoform): as the sequence (P27986 whole entry partner, species assumed, canonical isoform) above

On to `N#CCc1ccc(Nc2ncnc3ccc(-c4ccc5[nH]ccc5c4)cc23)cc1` [Compound 26, 6-(1H-indol-5-yl)-4-(4-cyanomethyl)phenylamino-quinazoline], for which the IC50 in [1] is 18 µM; in assay [2] it was 31 µM; in [3] it was 7 µM; in assay [4] it was 16 µM; in assay [5] it was 24 µM; in [6], 0.201 µM. Moreover, the 50% inhibitory concentration (IC50) is more than 10 µM in [7], 0.75 µM in assay [8] and more than 10 µM in assay [9]. Also, the “% Inhibition of PI3K-α at 0.5 μM” value in [6] is 47.5%. The inhibition at 0.5 µM in [6] is more than 40%. The “Fold-selectivity for PI3K-α with respect to -β” value (shortened to “Fold-selectivity for PI3K-α … -β”) in assay [7] is given as more than 49.7 fold. Also, in assay [8], the “Fold-selectivity for PI3K-α with respect to -γ” value (from here on “Fold-selectivity for PI3K-α … -γ”) is listed as 3.7 fold. Besides, the “Fold-selectivity for PI3K-α with respect to -δ” value (“Fold-selectivity for PI3K-α … -δ” for short) in assay [9] is given as more than 49.7 fold.

Turning to `N#CCc1ccc(Nc2ncnc3ccc(-c4ccc5c(c4)OCCO5)cc23)cc1` [Compound 20, 6-(2,3-dihydrobenzo[b][1,4]dioxin-6-yl)-4-(4-cyanomethyl)phenylamino-quinazoline], the IC50 in assay [1] stood at 21 µM; in assay [2] it was 27 µM; in [3], 34 µM; in assay [4], 32 µM; in assay [5] it was 34 µM; in [6], 0.342 µM. Also, the figures for the IC50 in [7], in [8] and in assay [9] were more than 10 µM, 1.37 µM and more than 10 µM, respectively. This compound yielded an inhibition at 0.5 µM in assay [6] of 33%. Besides, in assay [7], the “Fold-selectivity for PI3K-α … -β” value is on record as more than 29.2 fold. For the same compound, the “Fold-selectivity for PI3K-α … -γ” value in assay [8] was 4 fold. Further, the “Fold-selectivity for PI3K-α … -δ” value in assay [9] was more than 29.2 fold.

For the compound `CC(=O)c1ccc(-c2ccc3ncnc(Nc4ccc(CC#N)cc4)c3c2)cc1` [Compound 9, 6-(4-acetylphenyl)-4-(4-cyanomethyl)phenylamino quinazoline], the IC50 in [1] was 28 µM; in assay [2] it was 32 µM; in assay [3], 45 µM; in assay [4], 13 µM; in [5], 24 µM; in assay [6] it was 0.27 µM. Besides, the IC50 in assay [7] is more than 10 µM; in assay [8] it was 0.15 µM; in [9] it was more than 10 µM. The compound further showed an inhibition at 0.5 µM in assay [6] of 44%. Further, the “Fold-selectivity for PI3K-α … -β” value in assay [7] is more than 37 fold. The “Fold-selectivity for PI3K-α … -γ” value in [8] turned out to be 0.5 fold. For the same compound, the “Fold-selectivity for PI3K-α … -δ” value in assay [9] is more than 37 fold.

Consider `CC(=O)Nc1cccc(-c2ccc3ncnc(Nc4ccc(CC#N)cc4)c3c2)c1` [Compound 15, 6-(3-acetylaminophenyl)-4-(4-cyanomethyl)phenylamino quinazoline], for which the IC50 in assay [1] was 23 µM; in assay [2], 38 µM; in assay [3], 14 µM; in assay [4], 38 µM; in assay [5] it was 26 µM; in assay [6], 0.475 µM. Besides, the results for the IC50 in [7], in assay [8] and in [9] were more than 10 µM, 6.95 µM and more than 10 µM, respectively. In addition, 0.5 µM produced 36.8% inhibition in assay [6]. Moreover, the “Fold-selectivity for PI3K-α … -β” value in assay [7] is on record as more than 21 fold. Further, in assay [8], the “Fold-selectivity for PI3K-α … -γ” value was determined as 14.6 fold. Further, the “Fold-selectivity for PI3K-α … -δ” value in assay [9] is on record as more than 21 fold.

On to `N#CCc1ccc(Nc2ncnc3ccc(-c4cccc([N+](=O)[O-])c4)cc23)cc1` [Compound 11, 6-(3-nitrophenyl)-4-(4-cyanomethyl)phenylamino quinazoline], for which the half-inhibitory concentration (IC50) came to 15 µM in assay [1]; 23 µM in [2]; 12 µM in [3]; 7 µM in [4]; 29 µM in assay [5]; 0.451 µM in assay [6]. The IC50 was more than 10 µM in assay [7], 0.85 µM in assay [8] and more than 10 µM in assay [9]. The inhibition at 0.5 µM in [6] is 38.1%. Besides, the “Fold-selectivity for PI3K-α … -β” value in assay [7] is recorded as more than 22.2 fold. Besides, the “Fold-selectivity for PI3K-α … -γ” value in assay [8] is reported as 1.9 fold. In assay [9], the “Fold-selectivity for PI3K-α … -δ” value is given as more than 22.2 fold.

For the compound `N#CCc1ccc(Nc2ncnc3ccc(-c4cncc5ccccc45)cc23)cc1` [Compound 29, 6-(isoquinolin-4-yl)-4-(4-cyanomethyl)phenylamino-quinazoline], the IC50 in assay [1] came to 10 µM; in assay [2] it was 12 µM; in assay [3], 12 µM; in assay [4], 9 µM; in assay [5] it was 9 µM; in assay [6], 0.15 µM. The IC50 in assay [7] is more than 20 µM; in assay [8] it was 8.44 µM; in assay [9], 0.88 µM. Moreover, in [6], the “% Inhibition of PI3K-α at 0.5 μM” value came out at 48.8%. Besides, the inhibition at 0.5 µM in assay [6] is more than 40%. Further, the “% inhibition of PI3K-β” value in assay [7] (up to 20 μM) was found to be 0%. Besides, the “Fold-selectivity for PI3K-α … -β” value in assay [7] is more than 133 fold. Further, in [8], the “Fold-selectivity for PI3K-α … -γ” value came out at 56 fold. The “Fold-selectivity for PI3K-α … -δ” value in assay [9] is reported as 5.9 fold.

For the compound `N#CCc1ccc(Nc2ncnc3ccc(-c4cccc(O)c4)cc23)cc1` [Compound 10, 6-(3-hydroxyphenyl)-4-(4-cyanomethyl)phenylamino quinazoline], the IC50 in assay [1] was determined as 24 µM; in assay [2], 28 µM; in [3], 15 µM; in assay [4], 36 µM; in [5], 37 µM; in [6], 0.115 µM. Besides, the half-inhibitory concentration (IC50) in assay [7] came to 0.67 µM; in [8] it was 1.84 µM; in assay [9], 0.27 µM. The “% Inhibition of PI3K-α at 0.5 μM” value in [6] worked out at 69.9%. For the same compound, in [7], the “Fold-selectivity for PI3K-α … -β” value is reported as 5.8 fold. The “Fold-selectivity for PI3K-α … -γ” value in assay [8] is reported as 16 fold. For the same compound, in assay [9], the “Fold-selectivity for PI3K-α … -δ” value is 2.3 fold.

What is called IC50 is the concentration that gives 50% inhibition. What is called inhibition is the percentage by which the read-out fell short of the control. Low readings indicate a weak effect, high ones a strong effect.

These data come from patent US10202374B2, “6-aryl-4-phenylamino-quinazoline analogs as phosphoinositide-3-kinase inhibitors” (COUNCIL OF SCIENTIFIC & INDUSTRIAL RESEARCH, priority 2014, dated 2019).
